Measurements published in patent US9586961B2, “Homopiperazine derivatives as protein tyrosine kinase inhibitors and pharmaceutical use thereof” (LEO PHARMA A/S, priority 2010, dated 2017).
pEC50: −log10 of the molar value.

Tests used:
Format in all cases: biochemical
TYK2 = molecular target: T1, TYK2 (Homo sapiens, UniProt P29597); test: TYK2 kinase assay (HTRF, inhibition of phosphorylation of a synthetic peptide); conditions: catalytic domain aa 871-1187, GST-tag; 13 μM ATP (Km); read-out: TYK2 kinase inhibitory activity (EC50)
T1 construct: JAK1 (aa 850-1154) and TYK2 (aa 871-1187) are expressed with an N-terminally fused GST-tag; GST (N); purchased Carna Biosciences, Inc; host or cells: baculovirus expression system
T1 sequence (P29597 871-1187): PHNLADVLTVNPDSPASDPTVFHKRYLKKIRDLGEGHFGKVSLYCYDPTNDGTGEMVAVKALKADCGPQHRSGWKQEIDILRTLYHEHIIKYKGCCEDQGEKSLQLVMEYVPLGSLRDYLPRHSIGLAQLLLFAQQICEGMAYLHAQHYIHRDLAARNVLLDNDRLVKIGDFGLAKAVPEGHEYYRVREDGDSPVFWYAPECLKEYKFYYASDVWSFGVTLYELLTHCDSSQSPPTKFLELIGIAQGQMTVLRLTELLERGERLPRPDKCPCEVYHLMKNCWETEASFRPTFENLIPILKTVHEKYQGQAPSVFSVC
Experimental: JAK1, JAK2, JAK3 and TYK2 Kinase Assays:
Human baculovirus-expressed JAK1, 2, 3 and TYK2 were purchased from Carna Biosciences, Inc. All four purified enzymes contain only the catalytic domain. JAK1 (aa 850-1154) and TYK2 (aa 871-1187) are expressed with an N-terminally fused GST-tag, and JAK2 and JAK3 with an N-terminally fused His-tag. Inhibition of phosphorylation of a synthetic peptide was measured in an HTRF-based assay using the TK substrate-Biotin from the CisbioHTRFKinEASE TK kit. First, 2 μl of TK solution (TK substrate-biotin in kinase buffer [1× enzymatic buffer from HTRFKinEASE TK kit, 1 mM DTT]) is added to a plate containing 1 μl prediluted compound (final assay concentration DMSO: 0.75%). Then, 5 μl kinase-ATP mix (prepared in kinase buffer) is added to the wells and the plates are incubated at RT for 20-30 min. For all four kinases a concentration of ATP that corresponded to the Km for ATP was used. The final concentrations of buffers, substrate, kinase and ATP were: JAK1: 50 mMHepes buffer pH 7.0, 0.01% BSA, 10 mM MgCl2, 1 mM DTT, 7 μM ATP, 50 nMSEB, 1 μM TK Substrate-Biotin and 5 ng JAK1; JAK2: 50 mM Hepes buffer pH 7.0, 0.01% BSA, 5 mM MgCl2, 1 mM DTT, 4 μM ATP, 1 μM TK Substrate-Biotin and 0.1 ng JAK2; JAK3: 50 mMHepes buffer pH 7.0, 0.01% BSA, 5 mM MgCl2, 1 mM DTT, 2 μM ATP, 1 μM TK Substrate-Biotin and 0.3 ng JAK3; TYK2: 50 mMHepes buffer pH 7.0, 0.01% BSA, 5 mM MgCl2, 1 mM DTT, 13 μM ATP, 50 nMSEB, 1 μM TK Substrate-Biotin and 0.8 ng TYK2. Thereafter, the kinase reaction is stopped by adding 4 μl detection mix (final concentrations: 50 mM Hepes buffer pH 7.0, 0.01% BSA, 0.8 M KF, 20 mM EDTA, 42 nM Streptavidin-XL665 and 1:400 STKAbCryptate) and the plates are incubated overnight in the dark. The HTRF signal is read using an Envision plate reader.

JAK2 = molecular target: T2, JAK2 (Homo sapiens, UniProt O60674); test: JAK2 kinase assay (HTRF, inhibition of phosphorylation of a synthetic peptide); conditions: catalytic domain, His-tag; 4 μM ATP (Km); read-out: JAK2 kinase inhibitory activity (EC50)
T2 construct: All four purified enzymes contain only the catalytic domain; His (N); purchased Carna Biosciences, Inc; host or cells: baculovirus expression system
Method in brief: (§1)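 Baculovirus-expressed human catalytic domains (GST-JAK1, GST-TYK2, His-JAK2, His-JAK3) phosphorylated 1 μM TK substrate-biotin at ATP Km (JAK1 7 μM, JAK2 4 μM, JAK3 2 μM, TYK2 13 μM) in pH 7.0 Hepes for 20-30 min at RT, 0.75% DMSO. EDTA stop, then overnight streptavidin-XL665/cryptate-antibody detection and HTRF read.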

JAK1 = molecular target: T3, JAK1 (Homo sapiens, UniProt P23458); test: JAK1 kinase assay (HTRF, inhibition of phosphorylation of a synthetic peptide); conditions: catalytic domain aa 850-1154, GST-tag; 7 μM ATP (Km); read-out: JAK1 kinase inhibitory activity (EC50)
T3 construct: JAK1 (aa 850-1154) and TYK2 (aa 871-1187) are expressed with an N-terminally fused GST-tag; GST (N); purchased Carna Biosciences, Inc; host or cells: baculovirus expression system
Method in brief: as §1

JAK3 = molecular target: T4, JAK3 (Homo sapiens, UniProt P52333); test: JAK3 kinase assay (HTRF, inhibition of phosphorylation of a synthetic peptide); conditions: catalytic domain, His-tag; 2 μM ATP (Km); read-out: JAK3 kinase inhibitory activity (EC50)
T4 construct: All four purified enzymes contain only the catalytic domain; His (N); purchased Carna Biosciences, Inc; host or cells: baculovirus expression system
Method in brief: as §1

T4 sequence (P52333 822-1111 limits assumed): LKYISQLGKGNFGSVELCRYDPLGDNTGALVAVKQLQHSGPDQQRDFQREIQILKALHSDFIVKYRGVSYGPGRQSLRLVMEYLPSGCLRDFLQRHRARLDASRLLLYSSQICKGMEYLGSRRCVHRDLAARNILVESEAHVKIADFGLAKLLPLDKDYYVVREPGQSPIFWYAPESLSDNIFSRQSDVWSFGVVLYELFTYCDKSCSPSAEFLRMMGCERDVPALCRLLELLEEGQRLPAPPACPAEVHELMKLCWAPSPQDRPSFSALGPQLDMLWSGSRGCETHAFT
T3 sequence (P23458 850-1154): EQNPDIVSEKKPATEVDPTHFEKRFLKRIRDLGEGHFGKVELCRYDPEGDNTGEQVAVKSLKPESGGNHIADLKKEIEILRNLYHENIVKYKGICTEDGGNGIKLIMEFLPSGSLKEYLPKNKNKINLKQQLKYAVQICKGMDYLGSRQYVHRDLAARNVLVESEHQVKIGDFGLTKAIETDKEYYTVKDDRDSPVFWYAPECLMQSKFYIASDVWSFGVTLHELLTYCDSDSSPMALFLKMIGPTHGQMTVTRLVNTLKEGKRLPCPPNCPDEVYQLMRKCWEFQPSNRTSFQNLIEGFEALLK
T2 sequence (O60674 849-1124 limits assumed): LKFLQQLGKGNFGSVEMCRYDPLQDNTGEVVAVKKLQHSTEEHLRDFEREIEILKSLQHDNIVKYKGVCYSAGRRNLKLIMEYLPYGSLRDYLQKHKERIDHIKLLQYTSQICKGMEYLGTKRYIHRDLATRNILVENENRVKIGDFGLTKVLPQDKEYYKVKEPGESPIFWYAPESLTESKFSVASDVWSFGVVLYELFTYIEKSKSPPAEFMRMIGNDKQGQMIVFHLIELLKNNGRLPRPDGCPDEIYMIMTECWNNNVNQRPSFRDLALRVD

pEC50 (TYK2)	pEC50 (JAK2)	pEC50 (JAK1)	pEC50 (JAK3)	Compound
< 6.00	6.00 to 7.00	6.00 to 7.00	6.00 to 7.00	Cn1cc(S(N)(=O)=O)cc1C(=O)N1CCN(c2ncnc3[nH]ccc23)CC2(CC2)C1 [Example 36, 1-methyl-5-[5-(7H-pyrrolo[2,3-d]pyrimidin-4-yl)-5,8-diazaspiro[2.6]nonane-8-carbonyl]pyrrole-3-sulfonamide]
< 6.00	> 7.00	6.00 to 7.00	6.00 to 7.00	NS(=O)(=O)c1ccc(C(=O)N2CCN(c3ncnc4[nH]ccc34)CC3(CC3)C2)o1 [Example 37, 5-[5-(7H-pyrrolo[2,3-d]pyrimidin-4-yl)-5,8-diazaspiro[2.6]nonane-8-carbonyl]furan-2-sulfonamide]
< 6.00	> 7.00	> 7.00	> 7.00	NS(=O)(=O)CCCC(=O)N1CCN(c2ncnc3[nH]ccc23)CC2(CC2)C1 [Example 39, 4-oxo-4-[5-(7H-pyrrolo[2,3-d]pyrimidin-4-yl)-5,8-diazaspiro[2.6]nonan-8-yl]butane-1-sulfonamide]
< 6.00	6.00 to 7.00	6.00 to 7.00	6.00 to 7.00	O=C(CCC(F)(F)F)N1CCN(c2ncnc3[nH]ccc23)CCC12CC2 [Example 45, 4,4,4-trifluoro-1-[6-(7H-pyrrolo[2,3-d]pyrimidin-4-yl)-6,9-diazaspiro[2.6]nonan-9-yl]butan-1-one]
< 6.00	< 6.00	< 6.00	< 6.00	N#CCc1ccccc1C(=O)N1CCN(c2ncnc3[nH]ccc23)CCC12CC2 [Example 48, 2-[2-[6-(7H-pyrrolo[2,3-d]pyrimidin-4-yl)-6,9-diazaspiro[2.6]nonane-9-carbonyl]phenyl]acetonitrile]
< 6.00	6.00 to 7.00	6.00 to 7.00	6.00 to 7.00	N#CCCC(=O)N1CCN(c2ncnc3[nH]ccc23)CCC12CC2 [Example 49, 4-oxo-4-[6-(7H-pyrrolo[2,3-d]pyrimidin-4-yl)-6,9-diazaspiro[2.6]nonan-9-yl]butanenitrile]
< 6.00	6.00 to 7.00	6.00 to 7.00	6.00 to 7.00	O=C(c1ccc(S(=O)(=O)NCCc2cccs2)cc1)N1CCN(c2ncnc3[nH]ccc23)CC2(CC2)C1 [Example 50, 4-[5-(7H-pyrrolo[2,3-d]pyrimidin-4-yl)-5,8-diazaspiro[2.6]nonane-8-carbonyl]-N-[2-(2-thienyl)ethyl]benzenesulfonamide]

The remaining lines, values behind:

Compound	pEC50 (TYK2)	pEC50 (JAK2)	pEC50 (JAK1)	pEC50 (JAK3)
NS(=O)(=O)c1ccc(CCC(=O)N2CCN(c3ncnc4[nH]ccc34)CC3(CC3)C2)cc1 [Example 34, 4-[3-oxo-3-[5-(7H-pyrrolo[2,3-d]pyrimidin-4-yl)-5,8-diazaspiro[2.6]nonan-8-yl]propyl]benzenesulfonamide]	6.00 to 7.00	> 7.00	> 7.00	> 7.00
Cn1c(C(=O)N2CCN(c3ncnc4[nH]ccc34)CC3(CC3)C2)ccc1S(N)(=O)=O [Example 35, 1-methyl-5-[5-(7H-pyrrolo[2,3-d]pyrimidin-4-yl)-5,8-diazaspiro[2.6]nonane-8-carbonyl]pyrrole-2-sulfonamide]	< 6.00	6.00 to 7.00	6.00 to 7.00	6.00 to 7.00
Cc1ccc(C(=O)N2CCN(c3ncnc4[nH]ccc34)CC3(CC3)C2)cc1S(N)(=O)=O [Example 38, 2-methyl-5-[5-(7H-pyrrolo[2,3-d]pyrimidin-4-yl)-5,8-diazaspiro[2.6]nonane-8-carbonyl]benzenesulfonamide]	6.00 to 7.00	> 7.00	> 7.00	6.00 to 7.00
N#CC1(C(=O)N2CCN(c3ncnc4[nH]ccc34)CC3(CC3)C2)CCCC1 [Example 40, 1-[5-(7H-pyrrolo[2,3-d]pyrimidin-4-yl)-5,8-diazaspiro[2.6]nonane-8-carbonyl]cyclopentanecarbonitrile]	< 6.00	6.00 to 7.00	< 6.00	6.00 to 7.00
N#CC1(C(=O)N2CCN(c3ncnc4[nH]ccc34)CC3(CC3)C2)CCOCC1 [Example 41, 4-[5-(7H-pyrrolo[2,3-d]pyrimidin-4-yl)-5,8-diazaspiro[2.6]nonane-8-carbonyl]tetrahydropyran-4-carbonitrile]	< 6.00	6.00 to 7.00	< 6.00	6.00 to 7.00
N#Cc1ccc(C(=O)N2CCN(c3ncnc4[nH]ccc34)CC3(CC3)C2)cc1F [Example 42, 2-fluoro-4-[5-(7H-pyrrolo[2,3-d]pyrimidin-4-yl)-5,8-diazaspiro[2.6]nonane-8-carbonyl]benzonitrile]	< 6.00	6.00 to 7.00	6.00 to 7.00	6.00 to 7.00
COc1cc(OC)cc(C(=O)N2CCN(c3ncnc4[nH]ccc34)CC3(CC3)C2)c1 [Example 43, (3,5-dimethoxyphenyl)-[5-(7H-pyrrolo[2,3-d]pyrimidin-4-yl)-5,8-diazaspiro[2.6]nonan-8-yl]methanone]	< 6.00	< 6.00	< 6.00	< 6.00
N#CC1(C(=O)N2CCN(c3ncnc4[nH]ccc34)CCC23CC3)CC1 [Example 44, 1-[6-(7H-pyrrolo[2,3-d]pyrimidin-4-yl)-6,9-diazaspiro[2.6]nonane-9-carbonyl]cyclopropanecarbonitrile]	< 6.00	6.00 to 7.00	6.00 to 7.00	< 6.00
O=C(c1cc2ccccc2s1)N1CCN(c2ncnc3[nH]ccc23)CCC12CC2 [Example 46, benzothiophen-2-yl-[6-(7H-pyrrolo[2,3-d]pyrimidin-4-yl)-6,9-diazaspiro[2.6]nonan-9-yl]methanone]	< 6.00	6.00 to 7.00	6.00 to 7.00	< 6.00
N#Cc1cccc(CC(=O)N2CCN(c3ncnc4[nH]ccc34)CCC23CC3)c1 [Example 47, 3-[2-oxo-2-[6-(7H-pyrrolo[2,3-d]pyrimidin-4-yl)-6,9-diazaspiro[2.6]nonan-9-yl]ethyl]benzonitrile]	< 6.00	< 6.00	< 6.00	< 6.00
N#Cc1ccc(C(=O)N2CCN(c3ncnc4[nH]ccc34)CC3(CC3)C2)s1 [Example 51, 5-[5-(7H-pyrrolo[2,3-d]pyrimidin-4-yl)-5,8-diazaspiro[2.6]nonane-8-carbonyl]thiophene-2-carbonitrile]	6.00 to 7.00	> 7.00	> 7.00	> 7.00
COc1cc(S(N)(=O)=O)ccc1C(=O)N1CCN(c2ncnc3[nH]ccc23)CC2(CC2)C1 [Example 52, 3-methoxy-4-[5-(7H-pyrrolo[2,3-d]pyrimidin-4-yl)-5,8-diazaspiro[2.6]nonane-8-carbonyl]benzenesulfonamide]	< 6.00	> 7.00	6.00 to 7.00	6.00 to 7.00
COc1cc(C(=O)N2CCN(c3ncnc4[nH]ccc34)CC3(CC3)C2)ccc1S(N)(=O)=O [Example 53, 2-methoxy-4-[5-(7H-pyrrolo[2,3-d]pyrimidin-4-yl)-5,8-diazaspiro[2.6]nonane-8-carbonyl]benzenesulfonamide]	< 6.00	6.00 to 7.00	6.00 to 7.00	< 6.00
